A short description of series [1]: Particle size distribution by dynamic image analysis (Camsizer X2 with X-Jet module). It is filed as physicochemical. The procedure:
Said preferred particle size distribution is determined by means of dynamic image analysis (Camsizer X2 from Retsch with X-Jet module), wherein a dispersion pressure of 5, 20, or 460 kPa was applied. The evaluation was carried out in three size models, namely:
Xc(min) Particle width which is determined from the narrowest of all measured chords xc;
XFe(max) Particle length which is determined from the longest of all measured Feret diameters xFe;
Xarea Equivalent particle diameter which corresponds to the circle equivalent diameter.

For series [2] the following is noted: cited from earlier work.

The structures appear in SMILES notation.

Consider `O=C(CO)C(O)C(O)C(O)CO` (stereo not shown) [Comparative Example V1, allulose], for which, in series [1] (dispersion pressure 5 kPa), the “Minimum d10 XFe(max)” value stood at 90 μm, the “Minimum d10 Xarea” value stood at 75 μm, the “Minimum d10 Xc(min)” value was 60 μm and the “Minimum d50 XFe(max)” value is reported as 210 μm. In series [1] (dispersion pressure 5 kPa), the “Minimum d50 Xarea” value stood at 175 μm, the “Minimum d50 Xc(min)” value worked out at 130 μm, the “Minimum d90 XFe(max)” value is given as 320 μm and the “Minimum d90 Xarea” value stood at 255 μm. Further, the “Minimum d90 Xc(min)” value in series [1] (dispersion pressure 5 kPa) was 215 μm. In series [1] (dispersion pressure 20 kPa), the “Minimum d10 XFe(max)” value is given as 60 μm, the “Minimum d10 Xarea” value was determined as 50 μm, the “Minimum d10 Xc(min)” value came out at 40 μm and the “Minimum d50 XFe(max)” value was 185 μm. Besides, in series [1] (dispersion pressure 20 kPa), the “Minimum d50 Xarea” value was found to be 170 μm, the “Minimum d50 Xc(min)” value came out at 110 μm, the “Minimum d90 XFe(max)” value is reported as 315 μm and the “Minimum d90 Xarea” value worked out at 250 μm. Also, the “Minimum d90 Xc(min)” value in series [1] (dispersion pressure 20 kPa) is given as 210 μm. In addition, in series [1] (dispersion pressure 460 kPa), the “Minimum d10 XFe(max)” value turned out to be 1 μm, the “Minimum d10 Xarea” value is recorded as 2 μm, the “Minimum d10 Xc(min)” value was 2 μm and the “Minimum d50 XFe(max)” value was 55 μm. Also, in series [1] (dispersion pressure 460 kPa), the “Minimum d50 Xarea” value was determined as 40 μm, the “Minimum d50 Xc(min)” value is listed as 30 μm, the “Minimum d90 XFe(max)” value is on record as 150 μm and the “Minimum d90 Xarea” value was 110 μm. For the same compound, the “Minimum d90 Xc(min)” value in series [1] (dispersion pressure 460 kPa) is 110 μm.

With `O=C(CO)C(O)C(O)C(O)CO` (stereo not shown) [Example 1, allulose], in series [1] (dispersion pressure 5 kPa), the “Minimum d10 XFe(max)” value is on record as 105 μm, the “Minimum d10 Xarea” value came to 90 μm, the “Minimum d10 Xc(min)” value came out at 72 μm and the “Minimum d50 XFe(max)” value is 230 μm. For the same compound, in series [1] (dispersion pressure 5 kPa), the “Minimum d50 Xarea” value is given as 190 μm, the “Minimum d50 Xc(min)” value stood at 150 μm, the “Minimum d90 XFe(max)” value amounted to 350 μm and the “Minimum d90 Xarea” value was 270 μm. Moreover, in series [1] (dispersion pressure 5 kPa), the “Minimum d90 Xc(min)” value is listed as 235 μm. Besides, in series [1] (dispersion pressure 20 kPa), the “Minimum d10 XFe(max)” value is 75 μm, the “Minimum d10 Xarea” value was determined as 75 μm, the “Minimum d10 Xc(min)” value is reported as 55 μm and the “Minimum d50 XFe(max)” value was 220 μm. Also, in series [1] (dispersion pressure 20 kPa), the “Minimum d50 Xarea” value is listed as 195 μm, the “Minimum d50 Xc(min)” value was determined as 125 μm, the “Minimum d90 XFe(max)” value is 335 μm and the “Minimum d90 Xarea” value came to 280 μm. In series [1] (dispersion pressure 20 kPa), the “Minimum d90 Xc(min)” value came to 225 μm. In addition, in series [1] (dispersion pressure 460 kPa), the “Minimum d10 XFe(max)” value was 10 μm, the “Minimum d10 Xarea” value turned out to be 12 μm, the “Minimum d10 Xc(min)” value is 12 μm and the “Minimum d50 XFe(max)” value is listed as 70 μm. In series [1] (dispersion pressure 460 kPa), the “Minimum d50 Xarea” value stood at 55 μm, the “Minimum d50 Xc(min)” value is listed as 45 μm, the “Minimum d90 XFe(max)” value was 175 μm and the “Minimum d90 Xarea” value is recorded as 135 μm. Besides, the “Minimum d90 Xc(min)” value in series [1] (dispersion pressure 460 kPa) stood at 135 μm.

As for `C=C1C[C@@]23CC[C@H]4[C@@](C)(CCC[C@@]4(C)C(=O)O[C@@H]4O[C@H](CO)[C@@H](O)[C@H](O)[C@H]4O)[C@@H]2CC[C@]1(O[C@@H]1O[C@H](CO)[C@@H](O)[C@H](O)[C@H]1O[C@@H]1O[C@H](CO)[C@@H](O)[C@H](O)[C@H]1O)C3` [stevioside], the “Daily intake considered harmless” value in series [2] is “up to 4 mg per kilogram of body weight”.
